Consider 10 compounds from patent US8846696B2, “Purine derivatives” (Cyclacel Limited, priority 2002, dated 2014).

Structures are written as SMILES. Where two headings read alike, the source gives them in different places.

For one series, the target named is CDK2/cyclin E (Homo sapiens (Human), UniProt P24941). The series is described as follows: Kinase assay CDK2/cyclin E. The conditions noted are these: for A × B: comparative in vitro efficacy; for B: IC50 CDK2 roscovitine/IC50 CDK2 compound: ratio to roscovitine; for IC50: read-out: Kinase inhibition CDK2/cyclin E IC50. It counts as biochemical.
For another series, the target named is CDK1/cyclin B (Homo sapiens (Human), UniProt P06493). As to the kind of experiment: Kinase assay CDK1/cyclin B. It counts as biochemical. The conditions noted are these: read-out: Kinase inhibition CDK1/cyclin B IC50.
CDK1/cyclin B, sequence (P06493 whole entry): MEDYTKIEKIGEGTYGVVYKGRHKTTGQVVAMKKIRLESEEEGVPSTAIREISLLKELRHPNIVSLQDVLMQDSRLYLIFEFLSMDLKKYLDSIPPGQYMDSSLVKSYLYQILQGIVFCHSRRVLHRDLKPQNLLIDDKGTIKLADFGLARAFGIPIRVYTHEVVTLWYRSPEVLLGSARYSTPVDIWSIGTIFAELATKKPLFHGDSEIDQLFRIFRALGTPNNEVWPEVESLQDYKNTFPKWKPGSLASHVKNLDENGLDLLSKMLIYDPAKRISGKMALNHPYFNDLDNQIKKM
CDK1/cyclin B, sequence (P14635 whole entry partner): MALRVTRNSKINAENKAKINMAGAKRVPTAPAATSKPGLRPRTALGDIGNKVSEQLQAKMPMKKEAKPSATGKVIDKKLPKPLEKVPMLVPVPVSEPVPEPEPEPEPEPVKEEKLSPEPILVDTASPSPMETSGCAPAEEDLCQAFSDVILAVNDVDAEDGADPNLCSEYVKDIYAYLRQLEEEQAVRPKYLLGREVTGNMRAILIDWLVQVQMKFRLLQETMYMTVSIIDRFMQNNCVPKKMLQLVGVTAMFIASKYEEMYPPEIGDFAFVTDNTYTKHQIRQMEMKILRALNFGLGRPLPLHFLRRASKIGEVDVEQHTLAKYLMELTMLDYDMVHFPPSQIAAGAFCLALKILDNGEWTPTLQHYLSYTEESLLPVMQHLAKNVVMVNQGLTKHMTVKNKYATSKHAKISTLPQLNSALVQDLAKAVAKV
Series [1] concerns Human tumour cell lines: A549, HT29, Saos-2. As to the kind of experiment: 72-h MTT cytotoxicity assay, tumour cell lines A549, HT29, Saos-2. The format is cell-based. The conditions noted are these: for IC50: 72 h, read-out: In vitro anti-proliferative activity (72-h MTT IC50), Human tumour cell lines: A549, HT29, Saos-2; for C: IC50 cytotox. roscovitine/IC50 cytotox. compound: ratio to roscovitine. The procedure:
(§1) In short: cells were seeded into 96-well plates according to doubling time and incubated overnight at 37° C. Test compounds were made up in DMSO and a ⅓ dilution series prepared in 100 μL cell media, added to cells (in triplicates) and incubated for 72 ho at 37° C. MTT was made up as a stock of 5 mg/mL in cell media and filter-sterilised. Media was removed from cells followed by a wash with 200 μL PBS. MTT solution was then added at 20 μL per well and incubated in the dark at 37° C. for 4 h. MTT solution was removed and cells again washed with 200 μL PBS. MTT dye was solubilised with 200 μL per well of DMSO with agitation.

In another series the test system is A549. As to the kind of experiment: 72-h MTT assay A549. Particulars: Homo sapiens, read-out: 72-h MTT IC50, A549, lung carcinoma. It counts as cell-based. As to the method:
as §1
(§2) Representative compounds of this invention were examined for their anti-proliferative effect against human tumour cell lines and immortalized non-transformed human cell lines (“normal” cell lines).

A further series relates to HeLa. As to the kind of experiment: 72-h MTT assay HeLa. It counts as cell-based. Particulars: Homo sapiens, read-out: 72-h MTT IC50, cervical adenocarcinoma. As to the method: as §1, §2
The next series deals with HT-29. As to the kind of experiment: 72-h MTT assay HT-29. It counts as cell-based. The conditions noted are these: Homo sapiens, read-out: 72-h MTT IC50, HT-29, colorectal adenocarcinoma. As to the method: as §1, §2
In general terms: Tetrazolium dyes change colour on reduction, which living cells bring about.

The test system of a further series is MCF7. The series is described as follows: 72-h MTT assay MCF7. The format is cell-based. Particulars: Homo sapiens, read-out: 72-h MTT IC50, MCF7, mammary adenocarcinoma. As to the method:
as §1, §2

For a further series, the system named is Saos-2. The series is described as follows: 72-h MTT assay Saos-2. Particulars: Homo sapiens, read-out: 72-h MTT IC50, Saos-2, osteosarcoma. The format is cell-based. As to the method:
as §1, §2

The subject of another series is Hs27. The series is described as follows: 72-h MTT assay Hs27. It counts as cell-based. Particulars: Homo sapiens, read-out: 72-h MTT IC50, Hs27, normal foreskin fibroblast. As to the method: as §1, §2
In a further series the test system is IMR90. As to the kind of experiment: 72-h MTT assay IMR90. The format is cell-based. The conditions noted are these: Homo sapiens, IMR-90, 72 h, read-out: 72-h MTT IC50; IMR90, normal embryo lung fibroblast. As to the method: as §1, §2
The test system of the next series is WI38. The series is described as follows: 72-h MTT assay WI38. The conditions noted are these: Homo sapiens, WI-38, 72 h, read-out: 72-h MTT IC50; WI38, normal foetal lung fibroblast. It counts as cell-based. The procedure:
as §1, §2

A further series concerns cancer cell lines. The series is described as follows: 72-h MTT assay, mean of cancer cell lines. It counts as cell-based. The conditions noted are these: Homo sapiens, read-out: 72-h MTT IC50. The procedure:
as §1, §2

The next series concerns normal cell lines. The series is described as follows: 72-h MTT assay, mean of normal cell lines. Particulars: Homo sapiens, read-out: 72-h MTT IC50. It counts as cell-based. As to the method: as §1, §2
The conditions of series [2]: 10 μM.
Description: (§3) Calibration curves were prepared at 0, 1, and 10 μM in microsomes pre-incubated for 30 min and these were also treated with methanol containing olomoucine. All samples were then centrifuged and the supernatants analysed by liquid chromatography-mass spectrometry.
(§4) The chromatography column was a Supelco LC-ABZ, 50×4.6 mm, 5 μm zwitterionic column (Supelco Inc., Supelco Park, Bellefonte, Pa., USA). Gradient eluants consisted of methanol (A) and 0.1% formic acid in water (B). […] The flow rate was 1 mL/min throughout. […] Eluant from the detector passed, without splitting, into a Thernoquest LCQ ion trap mass spectrometer fitted with an electrospray source operated in positive mode. Mass spectrometer conditions were sheath gas 80, auxiliary gas 20 (both arbitrary units), capillary voltage 4 to 4.5 kV and heated capillary temperature 250 to 280° C. The mass range was 50-750. Scan time was controlled by the ion trap which was set to a maximum ion injection time of 200 ms or the time required to inject 2×10^8 ions; for each scan the system automatically used whichever time was reached first.
(§5) The peak area ration (test compound/internal standard) of the test incubation was then compared with the peak area ratios obtained fro the calibration curve of the test compound. From these values the concentration of test compound remaining after 30 min microsomal protein incubation was determined.
In series [3] the target is cyclic AMP-dependent kinase (PKA) catalytic subunit (Homo sapiens (Human), UniProt P17612). The series is described as follows: Kinase assay PKA. Particulars: read-out: Kinase inhibition PKA IC50.
Description: (§6) Recombinant cyclin D1 was expressed in E. coli. […] Reactions were stopped on ice, followed by filtration through p81 filterplates or GF/C filterplates (for CDK4) (Whatman Polyfiltronics, Kent, UK), except for CDK7 where, after stopping reaction on ice, 10 μL of 10 mg/mL avidin was added to each well and further incubated for 10 min followed by filtration as per CDK2 assay. After washing 3 times with 75 mM aq orthophosphoric acid, plates were dried, scintillant added and incorporated radioactivity measured in a scintillation counter (TopCount, Packard Instruments, Pangbourne, Berks, UK). Compounds for kinase assay were made up as 10 mM stocks in DMSO and diluted into 10% DMSO in assay buffer.
The next series deals with ERK-2 (Homo sapiens (Human), UniProt P28482). As to the kind of experiment: Kinase assay ERK-2. Particulars: read-out: Kinase inhibition ERK2 IC50.
ERK-2, sequence (P28482 whole entry, species assumed): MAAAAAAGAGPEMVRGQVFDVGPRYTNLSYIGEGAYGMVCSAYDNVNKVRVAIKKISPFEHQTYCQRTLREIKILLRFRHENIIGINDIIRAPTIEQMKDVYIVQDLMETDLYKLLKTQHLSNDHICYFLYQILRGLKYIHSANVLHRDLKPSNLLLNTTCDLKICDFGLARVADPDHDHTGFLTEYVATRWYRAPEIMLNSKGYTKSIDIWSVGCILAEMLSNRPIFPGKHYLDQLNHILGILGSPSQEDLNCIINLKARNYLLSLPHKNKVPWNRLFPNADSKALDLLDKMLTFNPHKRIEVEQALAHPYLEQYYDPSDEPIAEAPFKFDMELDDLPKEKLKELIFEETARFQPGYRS
For a further series, the target named is CDK7/cyclin H (Homo sapiens (Human), UniProt P50613). As to the kind of experiment: Kinase assay CDK7/cyclin H. The format is biochemical. Particulars: read-out: Kinase inhibition CDK7/cyclin H IC50.
CDK7/cyclin H, sequence (P50613 whole entry): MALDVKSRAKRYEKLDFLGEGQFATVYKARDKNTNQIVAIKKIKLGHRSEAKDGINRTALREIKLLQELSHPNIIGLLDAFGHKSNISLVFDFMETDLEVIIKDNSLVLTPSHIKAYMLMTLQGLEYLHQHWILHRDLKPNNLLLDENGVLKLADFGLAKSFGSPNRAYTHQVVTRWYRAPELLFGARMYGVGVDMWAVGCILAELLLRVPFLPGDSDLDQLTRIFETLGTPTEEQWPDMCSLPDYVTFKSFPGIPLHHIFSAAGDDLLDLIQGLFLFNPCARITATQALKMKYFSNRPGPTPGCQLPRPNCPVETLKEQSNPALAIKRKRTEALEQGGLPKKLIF
CDK7/cyclin H, sequence (P51946 whole entry partner): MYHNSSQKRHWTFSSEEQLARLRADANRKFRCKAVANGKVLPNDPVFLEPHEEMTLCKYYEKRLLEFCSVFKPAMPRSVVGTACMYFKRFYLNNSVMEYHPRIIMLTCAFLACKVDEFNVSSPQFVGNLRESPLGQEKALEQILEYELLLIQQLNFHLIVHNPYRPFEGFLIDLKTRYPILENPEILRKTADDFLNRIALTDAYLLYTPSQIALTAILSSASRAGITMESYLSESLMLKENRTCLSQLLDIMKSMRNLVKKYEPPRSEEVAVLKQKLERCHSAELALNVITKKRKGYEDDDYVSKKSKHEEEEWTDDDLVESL
Another series concerns the target CDK4/cyclin D1 (Homo sapiens (Human), UniProt P11802). Particulars: read-out: Kinase inhibition CDK4/cyclin D1 IC50.
Series [4] in a line: Comparative in vitro metabolism assay (microsomal incubation).
Description: as §3, §4, §5

CDK4/cyclin D1, sequence (P11802 whole entry): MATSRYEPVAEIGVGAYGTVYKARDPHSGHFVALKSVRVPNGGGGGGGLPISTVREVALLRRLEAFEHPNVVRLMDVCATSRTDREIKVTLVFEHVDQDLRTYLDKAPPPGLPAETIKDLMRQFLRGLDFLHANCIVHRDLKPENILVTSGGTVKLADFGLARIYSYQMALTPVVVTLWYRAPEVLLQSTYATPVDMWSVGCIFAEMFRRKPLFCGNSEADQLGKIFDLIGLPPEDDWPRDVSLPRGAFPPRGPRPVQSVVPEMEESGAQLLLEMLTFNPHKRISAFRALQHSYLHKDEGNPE
CDK4/cyclin D1, sequence (P24385 whole entry partner): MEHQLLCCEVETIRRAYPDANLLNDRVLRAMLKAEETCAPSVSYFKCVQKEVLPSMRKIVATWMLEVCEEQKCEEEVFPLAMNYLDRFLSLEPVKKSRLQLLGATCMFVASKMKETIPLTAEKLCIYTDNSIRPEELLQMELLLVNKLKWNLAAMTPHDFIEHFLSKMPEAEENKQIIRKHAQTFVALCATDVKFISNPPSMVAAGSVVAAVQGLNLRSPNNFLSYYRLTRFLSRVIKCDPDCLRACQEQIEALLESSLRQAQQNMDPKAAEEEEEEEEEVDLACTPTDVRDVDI
Description for CDK1/cyclin B: as §6
Description for CDK2/cyclin E: as §6
Description for CDK4/cyclin D1: as §6
Description for CDK7/cyclin H: Reactions were stopped on ice, followed by filtration through p81 filterplates or GF/C filterplates (for CDK4) (Whatman Polyfiltronics, Kent, UK), except for CDK7 where, after stopping reaction on ice, 10 μL of 10 mg/mL avidin was added to each well and further incubated for 10 min followed by filtration as per CDK2 assay. After washing 3 times with 75 mM aq orthophosphoric acid, plates were dried, scintillant added and incorporated radioactivity measured in a scintillation counter (TopCount, Packard Instruments, Pangbourne, Berks, UK). Compounds for kinase assay were made up as 10 mM stocks in DMSO and diluted into 10% DMSO in assay buffer.
Description for ERK-2: as §6

As to `CC[C@H](Nc1nc(NCc2cccnc2)c2ncn(C(C)C)c2n1)[C@@H](C)O` [(2R3S)-3-{9-Isopropyl-6-[(pyridin-3-ylmethyl)-amino]-9H-purin-2-ylamino}-pentan-2-ol], the “A × B” value at CDK2/cyclin E is reported as 7.5. The IC50 on CDK1/cyclin B is 2.2 µM; in [1], 0.8 µM; in the series on A549, 0.9 ± 0.1 µM; in the series with HeLa, 1.4 ± 0.2 µM; in the series with HT-29, 1.1 ± 0.2 µM; in the series with MCF7, 0.7 ± 0.1 µM. Besides, the IC50 in the series on Saos-2 was 1.2 ± 0.2 µM; in the series on Hs27 it was 5.9 ± 0.3 µM; with IMR90 it was above 20 µM; with WI38, 6.1 ± 0.3 µM; in the series on cancer cell lines, 1.1 ± 0.3 µM; in the series on normal cell lines, above 10 µM. For the same compound, the values for the IC50 (in series [3]; on ERK-2) were above 200 µM and 20 µM, respectively. In addition, the “% Drug after 30 min. microsomal incubation” value (from here on “% Drug”) in [2] came out at 67%.
Take `CC[C@H](Nc1nc(NCc2cccnc2)c2ncn(C(C)C)c2n1)C(O)C(C)(C)C` (mixture of isomers) [(3RS,4S)-4-{9-Isopropyl-6-[(pyridin-3-ylmethyl)-amino]-9H-purin-2-ylamino}-2,2-dimethyl-hexan-3-ol]: on CDK2/cyclin E, the “A × B” value amounted to 0.4. The “B: IC50 CDK2 roscovitine/IC50 CDK2 compound” value on CDK2/cyclin E was found to be 0.3. Moreover, the IC50 is 0.39 µM at CDK2/cyclin E; 21 µM on CDK1/cyclin B; 3.5 µM on CDK7/cyclin H; 15 µM in [1]; 13 µM on CDK4/cyclin D1; above 200 µM in series [3]. The IC50 on ERK-2 turned out to be 23 µM. For the same compound, the “C: IC50 cytotox. roscovitine/IC50 cytotox. compound” value in series [1] came out at 0.8. Also, the “% Drug” value in series [2] stood at 50%.
On to `CC[C@@H](Nc1nc(NCc2cccnc2)c2ncn(C(C)C)c2n1)C(O)C(C)C` (mixture of isomers) [(3RS,4R)-4-{9-Isopropyl-6-[(pyridin-3-ylmethyl)-amino]-9H-purin-2-ylamino}-2-methyl-hexan-3-ol], for which the IC50 on CDK2/cyclin E came out at 0.69 µM; on CDK1/cyclin B, 20 µM; at CDK7/cyclin H it was 2.2 µM; in [1], 28 µM; at CDK4/cyclin D1, 21 µM; in [3] it was 200 µM. For the same compound, the IC50 on ERK-2 was 111 µM.
Consider `CC[C@@H](Nc1nc(NCc2cccnc2)c2ncn(C(C)C)c2n1)C(O)C(C)(C)C` (mixture of isomers) [(3RS,4R)-4-{9-Isopropyl-6-[(pyridin-3-ylmethyl)-amino]-9H-purin-2-ylamino}-2,2-dimethyl-hexan-3-ol], for which the IC50 on CDK2/cyclin E was 1 µM; at CDK1/cyclin B it was 23 µM; at CDK7/cyclin H, 1.6 µM; in series [1], 19 µM; at CDK4/cyclin D1, 24 µM; in series [3], above 200 µM. The IC50 at ERK-2 was determined as 51 µM.
For the compound `CCC(O)[C@@H](CC)Nc1nc(NCc2cccnc2)c2ncn(C(C)C)c2n1` (mixture of isomers) [(3RS,4R)-4-{9-Isopropyl-6-[(pyridin-3-ylmethyl)-amino]-9H-purin-2-ylamino}-hexan-3-ol], at CDK2/cyclin E, the “A × B” value is given as 1.0. On CDK2/cyclin E, the “B: IC50 CDK2 roscovitine/IC50 CDK2 compound” value was 0.5. For the same compound, the IC50 on CDK2/cyclin E was 0.22 µM; at CDK1/cyclin B it was 12 µM; on CDK7/cyclin H, 1.1 µM; in series [1], 10 µM; on CDK4/cyclin D1, 25 µM; in [3] it was above 200 µM. Besides, the IC50 at ERK-2 amounted to 37 µM. Also, in series [1], the “C: IC50 cytotox. roscovitine/IC50 cytotox. compound” value turned out to be 1.1. The “% Drug” value in series [2] is 70%.
Turning to `CC[C@@H](Nc1nc(NCc2cccnc2)c2ncn(C(C)C)c2n1)C(C)(C)O` [(3R)-3-{9-Isopropyl-6-[(pyridin-3-ylmethyl)-amino]-9H-purin-2-ylamino}-2-methyl-pentan-2-ol], on CDK2/cyclin E, the “A × B” value stood at 1.3. In addition, the “B: IC50 CDK2 roscovitine/IC50 CDK2 compound” value at CDK2/cyclin E was found to be 0.5. The IC50 on CDK2/cyclin E is 0.2 µM; at CDK1/cyclin B, 6.2 µM; on CDK7/cyclin H, 3.1 µM; in series [1] it was 5.6 µM; on CDK4/cyclin D1, 7.5 µM; in series [3], above 200 µM. Further, the IC50 at ERK-2 came out at 91 µM. In [1], the “C: IC50 cytotox. roscovitine/IC50 cytotox. compound” value was 2.1. Also, the “% Drug” value in series [2] is 84%.
In the case of `CC[C@H](Nc1nc(NCc2cccnc2)c2ncn(C(C)C)c2n1)C(O)C(C)C` (mixture of isomers) [(3RS,4S)-4-{9-Isopropyl-6-[(pyridin-3-ylmethyl)-amino]-9H-purin-2-ylamino}-2-methyl-hexan-3-ol], the IC50 at CDK2/cyclin E was 1.1 µM; on CDK1/cyclin B, 22 µM; at CDK7/cyclin H, 3.5 µM; in [1], 19 µM; at CDK4/cyclin D1, 31 µM; in [3] it was above 200 µM. Further, the IC50 at ERK-2 is 67 µM.
Take `CC[C@H](CO)Nc1nc(NCc2ccccc2)c2ncn(C(C)C)c2n1` [Roscovitine, roscovitine]: the “% Drug” value in series [4] (10 μM compound, 30 min, microsomal protein 0.2 mg, NADPH) is on record as 33%. The “A: % Compound remaining/% roscovitine remaining” value in series [4] (ratio to roscovitine) amounted to 1.0.
For the compound `CCC(O)[C@H](CC)Nc1nc(NCc2cccnc2)c2ncn(C(C)C)c2n1` (mixture of isomers) [(3RS,4S)-4-{9-Isopropyl-6-[(pyridin-3-ylmethyl)-amino]-9H-purin-2-ylamino}-hexan-3-ol], on CDK2/cyclin E, the “A × B” value is recorded as 2.1. Further, the “B: IC50 CDK2 roscovitine/IC50 CDK2 compound” value on CDK2/cyclin E is 1.0. Moreover, the IC50 is 0.11 µM at CDK2/cyclin E; 13 µM at CDK1/cyclin B; 1.5 µM on CDK7/cyclin H; 5.5 µM in series [1]; 11 µM on CDK4/cyclin D1; above 200 µM in series [3]. Also, the IC50 at ERK-2 stood at 17 µM. Moreover, in series [1], the “C: IC50 cytotox. roscovitine/IC50 cytotox. compound” value is given as 2.1. Besides, the “% Drug” value in series [2] is listed as 73%.
For `CC[C@@H](Nc1nc(NCc2cccnc2)c2ncn(C(C)C)c2n1)[C@H](C)O` [(2S3R)-3-{9-Isopropyl-6-[(pyridin-3-ylmethyl)-amino]-9H-purin-2-ylamino}-pentan-2-ol], the “A × B” value at CDK2/cyclin E is recorded as 3.1. For the same compound, the IC50 on CDK1/cyclin B was 4.9 µM; in series [1], 1.5 µM; with A549, 2.1 ± 0.4 µM; in the series on HeLa it was 2.9 ± 0.2 µM; in the series on HT-29, 2.3 ± 0.6 µM; in the series with MCF7, 1.6 ± 0.2 µM. Further, the IC50 in the series with Saos-2 was 2.8 ± 0.1 µM; in the series with Hs27 it was 10.2 ± 0.6 µM; in the series on IMR90 it was above 20 µM; in the series on WI38 it was 11.2 ± 1.2 µM; with cancer cell lines it was 2.3 ± 0.5 µM; with normal cell lines, above 10 µM. The IC50 in series [3] is above 200 µM; on ERK-2, 23 µM. In series [2], the “% Drug” value worked out at 90%.
